Test results published in patent US8242166B2, “C(10) ethyl ester and C(10) cyclopropyl ester substituted taxanes” (Florida State University Research Foundation, Inc., priority 2008, dated 2012).
Where “and” joins values, the source holds several entries; their conditions need not be identical. Equal entries are not always repeated. Where two headings read alike, the source gives them in different places.

How the values were obtained:
HCT116 = test: MTT cytotoxicity (IC50), HCT116; assay type: cell-based; settings: Homo sapiens, HCT-116, 72 h, read-out: IN Vitro IC50 (nm) HCT116
Method: (§1) All cell lines were maintained in RPMI-1640 tissue culture medium (TCM, supplemented with antibiotics and 10% fetal bovine serum) and cultured at 37° C. in humidified air containing 5% CO2. To assess the antiproliferative effects of the test compounds, 172 μL of tumor cell suspension (1.45×10^4 cells/ml) were added to each well of a 96-well plate and incubated for 24 h at 37° C. in 5% CO2 in air to allow cells to adhere. Seven 2-fold drug dilutions in TCM/DMSO were performed in triplicate in separate 96-well plates and 28 μL was transferred to the wells containing tumor cells (200 μL final volume/0.1% DMSO). Plates were incubated for 72 h and cell viability was determined by adding 50 μL of warm TCM containing 5 mg/mL MTT (3-[4,5-dimethylthiazol-2-yl]-2,5-diphenyltetrazolium bromide) to each well and incubating for 1 h at 37° C. Plates were processed and the absorbances of the resulting solutions were measured by a plate reader at 570 nm. […] (GraphPad Prism version 4.00 for Windows). Studies were conducted by Taxolog, Inc., Tallahassee, Fla.

[1] = test system: human A375 melanoma xenograft; test: A375 xenograft study e209 (Example 27)
Method: The endpoint was a tumor volume of 2,000 mm^3 and the study was terminated on Day 56. Efficacy was assessed by tumor growth delay and the number of partial and complete regressions. Animals with a CR that persisted through Day 56 were classified as long-term tumor-free survivors (TFS).

BxPC-3 cancer cell line = test: MTT cytotoxicity (IC50), BxPC-3 (Oncodesign); assay type: cell-based; settings: Homo sapiens
Method: BxPC-3 cancer cell line (Source ATCC) and culture medium were purchased and provided by Oncodesign (France).
Tumor cells (5,000 cells per well) were plated in 96-well flat-bottom microtitration plates (Ref 167008, Batch 083310, Nunc, Dutscher, Brumath, France) and incubated at 37° C. for 24 hours before treatment in 100 μl of drug-free RPMI 1640 medium supplemented with 10% FBS. Tumor cell lines were incubated for 72 hours with 10 concentrations of both test substances and TXT (40 to 0.07 nM using ½ step dilutions). Experiments were repeated three times, each assay being issued from quadruplicate. Control cells were treated with the vehicle alone. At the end of treatments, the cytotoxic activity was evaluated by a MTT assay. These studies were conducted at Oncodesign, France.

HT29 = test: MTT cytotoxicity (IC50), HT29; assay type: cell-based; settings: Homo sapiens, HT-29, 72 h, read-out: IN Vitro IC50 (nm) HT29
Method: as §1, with “Compound 17932 was tested in four of these cell lines, while the remaining compounds were tested in all of these cell lines. All” for “All”

[2] = test system: HT29 human tumor xenografts; test: HT29 xenograft study e210, oral and i.v. (Example 25); settings: for CR (complete regression) / NTR NTRa/u / NTR NTRm / PR (partial regression) / TFS (tumor-free survivor) / TR (treatment-related death): n=6
From the text: The formulation for oral studies was an ethanol and Cremophor formulation while the formulation for compound 18365 and compound 19244 dosed i.v. was 5% ethanol and 95% Liposyn II 20%.

PANC-1 = test: MTT cytotoxicity (IC50), PANC-1; assay type: cell-based; settings: Homo sapiens, 72 h, read-out: IN Vitro IC50 (nm) Panc
Method: as §1, with “Compound 17932 was tested in four of these cell lines, while the remaining compounds were tested in all of these cell lines. All” for “All”

A375 = test: MTT cytotoxicity (IC50), A375; assay type: cell-based; settings: Homo sapiens, A-375
Method: as §1, with “Compound 17932 was tested in four of these cell lines, while the remaining compounds were tested in all of these cell lines. All” for “All”

TK-10 = test: MTT cytotoxicity (IC50), TK-10; assay type: cell-based; settings: Homo sapiens, 72 h, read-out: IN Vitro IC50 (nm) TK10
Method: as §1, with “Compound 17932 was tested in four of these cell lines, while the remaining compounds were tested in all of these cell lines. All” for “All”

SNB-19 = test: MTT cytotoxicity (IC50), SNB-19; assay type: cell-based; settings: Homo sapiens, 72 h, read-out: IN Vitro IC50 (nm) SNB19
Method: as §1, with “Compound 17932 was tested in four of these cell lines, while the remaining compounds were tested in all of these cell lines. All” for “All”

[3] = test system: HT29 human tumor xenografts; test: HT29 xenograft study e139 (Example 23); assay type: in vivo, nude mice; settings: for Number of Death NTR / Number of Death TR: N=6
[4] = 30 mg/kg iv q4d × 4, vehicle EL
[5] = BXPC-3, 72 h, Exp 1, MTT, 72 hours, read-out: IC50 (nM) BxPC-3
[6] = BXPC-3, 72 h, Exp 2, MTT, 72 hours, read-out: IC50 (nM) BxPC-3
[7] = BXPC-3, 72 h, Exp 3, MTT, 72 hours, read-out: IC50 (nM) BxPC-3
[8] = BXPC-3, mean of 3 experiments, read-out: IC50 Mean ± SD (nM) BxPC-3
[9] = MTT, 72 h, read-out: IN Vitro IC50 (nm) A375
[10] = Resistance MRP9, read-out: A375 Melanoma (Table 4, quantity not named; IC50 values as Table 2)
[11] = 25 mg/kg iv qwk × 3, vehicle ET

Compound: CC(=O)O[C@@]12CO[C@@H]1C[C@H](O)[C@@]1(C)C(=O)[C@H](OC(=O)C3CC3)C3=C(C)[C@@H](OC(=O)[C@H](O)[C@@H](NC(=O)OC4CCC4)c4cccs4)C[C@@](O)([C@@H](OC(=O)c4ccccc4)C12)C3(C)C (stereo partly shown) [Compound 18365]
- IC50 (HCT116): 0.4 nM
- BW Nadir ([1]; 30 mg/kg iv q4d × 4): −9.8% (14)
- MTV(n), Day 56 ([1]; 30 mg/kg iv q4d × 4): 0.00 (6) mm^3
- CR (complete regression) ([1]; 30 mg/kg iv q4d × 4, n=6): 5
- NTR NTRa/u ([1]; 30 mg/kg iv q4d × 4, n=6): 0
- NTR NTRm ([1]; 30 mg/kg iv q4d × 4, n=6): 0
- PR (partial regression) ([1]; 30 mg/kg iv q4d × 4, n=6): 0
- TFS (tumor-free survivor) ([1]; 30 mg/kg iv q4d × 4, n=6): 5
- TR (treatment-related death) ([1]; 30 mg/kg iv q4d × 4, n=6): 0
- % TGD [1, 4]: 210.08%
- Median TTE [1, 4]: 56 days
- T-C [1, 4]: 37.94 days
- IC50 (BxPC-3 cancer cell line; [5]): 0.79 nM
- IC50 (BxPC-3 cancer cell line; [6]): 1.07 nM
- IC50 (BxPC-3 cancer cell line; [7]): 0.99 nM
- IC50 (BxPC-3 cancer cell line; [8]): 0.95 ± 0.14 nM
- IC50 (HT29): 0.5 nM
- % TGD ([2]; 25 mg/kg iv q4d × 4): 214.3%
- BW Nadir ([2]; 25 mg/kg iv q4d × 4): −7.6% (16)
- MTV (n), Day 60 ([2]; 25 mg/kg iv q4d × 4): 5.00 (6) mm^3
- Median TTE ([2]; 25 mg/kg iv q4d × 4): 60 days
- T-C ([2]; 25 mg/kg iv q4d × 4): 40.91 days
- CR (complete regression) ([2]; 25 mg/kg iv q4d × 4): 4
- NTR NTRa/u ([2]; 25 mg/kg iv q4d × 4): 0
- NTR NTRm ([2]; 25 mg/kg iv q4d × 4): 0
- PR (partial regression) ([2]; 25 mg/kg iv q4d × 4): 2
- TFS (tumor-free survivor) ([2]; 25 mg/kg iv q4d × 4): 4
- TR (treatment-related death) ([2]; 25 mg/kg iv q4d × 4): 0
- % TGD ([2]; 50 mg/kg po q4d × 4): 214.3%
- BW Nadir ([2]; 50 mg/kg po q4d × 4): −7.6% (16)
- MTV (n), Day 60 ([2]; 50 mg/kg po q4d × 4): 8.75 (6) mm^3
- Median TTE ([2]; 50 mg/kg po q4d × 4): 60 days
- T-C ([2]; 50 mg/kg po q4d × 4): 40.91 days
- CR (complete regression) ([2]; 50 mg/kg po q4d × 4): 4
- NTR NTRa/u ([2]; 50 mg/kg po q4d × 4): 0
- NTR NTRm ([2]; 50 mg/kg po q4d × 4): 0
- PR (partial regression) ([2]; 50 mg/kg po q4d × 4): 2
- TFS (tumor-free survivor) ([2]; 50 mg/kg po q4d × 4): 3
- TR (treatment-related death) ([2]; 50 mg/kg po q4d × 4): 0
- activity in the HT29 xenograft tumor model ([2]; every four day schedule for four doses): oral and IV activity
- IC50 (PANC-1): 1.2 nM
- IC50 (A375; [9]): 0.6 nM
- IC50 (A375; [10]): 0.6 nM
- IC50 (TK-10): 0.5 nM
- IC50 (SNB-19): 1.1 nM
- 61-day survivors ([3]; 25 mg/kg i.v. q4d×4, six mice): five
- CR responses ([3]; 25 mg/kg i.v. q4d×4, six mice): 2
- PR responses ([3]; 25 mg/kg i.v. q4d×4, six mice): 4
- Day 51 mm^3 (tumor size) ([3]; 25 mg/kg iv q4d × 4): 112.8 mm^3
- Day 54 mm^3 (tumor size) ([3]; 25 mg/kg iv q4d × 4): 124.7 mm^3
- Max. BW Loss %; Day ([3]; 25 mg/kg iv q4d × 4): −17.1%; Day 16
- Number of Death NTR ([3]; 25 mg/kg iv q4d × 4): 0
- Number of Death TR ([3]; 25 mg/kg iv q4d × 4): 1

Compound: CC(=O)O[C@@]12CO[C@@H]1C[C@H](O)[C@@]1(C)C(=O)[C@H](O)C3=C(C)[C@@H](OC(=O)[C@H](O)[C@@H](NC(=O)OC(C)(C)C)c4ccccc4)C[C@@](O)([C@@H](OC(=O)c4ccccc4)[C@H]21)C3(C)C [Docetaxel, docetaxel, reference compound]
- IC50 (HCT116): 0.9 nM
- BW Nadir ([1]; 25 mg/kg iv qwk × 3): −4.0% (25)
- CR (complete regression) ([1]; 25 mg/kg iv qwk × 3, n=6): 0
- NTR NTRm ([1]; 25 mg/kg iv qwk × 3, n=6): 0
- PR (partial regression) ([1]; 25 mg/kg iv qwk × 3, n=6): 0
- TFS (tumor-free survivor) ([1]; 25 mg/kg iv qwk × 3, n=6): 0
- TR (treatment-related death) ([1]; 25 mg/kg iv qwk × 3, n=6): 0
- % TGD [1, 11]: 49.06%
- Median TTE [1, 11]: 26.92 days
- T-C (tumor growth delay) ([1]; 25 mg/kg iv qwk × 3, vehicle ET, listed as 2): 8.9 days and 8.86 days
- IC50 (BxPC-3 cancer cell line; [5]): 0.93 nM
- IC50 (BxPC-3 cancer cell line; [6]): 2.2 nM
- IC50 (BxPC-3 cancer cell line; [7]): 0.73 nM
- IC50 (BxPC-3 cancer cell line; [8]): 1.29 ± 0.8 nM
- IC50 (HT29): 1.3 nM
- % TGD ([2]; 25 mg/kg iv qwk × 3): 214.3%
- MTV (n), Day 60 ([2]; 25 mg/kg iv qwk × 3): 40.00 (6) mm^3
- Median TTE ([2]; 25 mg/kg iv qwk × 3): 60 days
- T-C ([2]; 25 mg/kg iv qwk × 3): 40.91 days
- CR (complete regression) ([2]; 25 mg/kg iv qwk × 3): 4
- NTR NTRm ([2]; 25 mg/kg iv qwk × 3): 0
- PR (partial regression) ([2]; 25 mg/kg iv qwk × 3): 2
- TFS (tumor-free survivor) ([2]; 25 mg/kg iv qwk × 3): 2
- TR (treatment-related death) ([2]; 25 mg/kg iv qwk × 3): 0
- IC50 (PANC-1): 1.9 nM
- IC50 (A375; [9]): 2.4 nM
- IC50 (A375; [10]): 2.4 nM
- IC50 (TK-10): 1.4 nM
- IC50 (SNB-19): 1.9 nM
- Day 54 mm^3 (tumor size) ([3]; 25 mg/kg iv q7d × 3): 180.6 mm^3
- Max. BW Loss %; Day ([3]; 25 mg/kg iv q7d × 3): −14.4%; Day 19
- Number of Death NTR ([3]; 25 mg/kg iv q7d × 3): 0
- Number of Death TR ([3]; 25 mg/kg iv q7d × 3): 0
- TGD ([3]; 25 mg/kg q7d×3): 210%
- group mean body-weight (BW) loss ([3]; 25 mg/kg q7d×3): 14.4%
- MTV (Day 61) ([3]; 25 mg/kg q7d×3, five mice): 196 mm^3
- LTTFS ([3]; 25 mg/kg q7d×3, six mice): 1
- PR responses ([3]; 25 mg/kg q7d×3, six mice): 5
